Measured values from patent publication US20130267513A1, “PYRAZOLOPYRIDINES AS INHIBITORS OF THE KINASE LRRK2” (priority 2010, published 2013).

How the values were obtained:
LRRK2 [1] = molecular target: T1, LRRK2 (Homo sapiens, UniProt Q5S007); assay: LRRK2 protein kinase assay ([γ-33P] ATP, peptide substrate), IC50; assay type: biochemical; set-up: Potency scores (LRRK2 IC50); the wild type has the same borders, PV4873; fused on or other part: GST tag; details: LRRK2 form (G2019S or wild type) not given; read-out: Potency scores (LRRK2 IC50)
From the text: All LRRK2 protein kinases were of human origin and were sourced from Invitrogen Corporation (Carlsbad, Calif. 92008 USA) unless otherwise indicated. The active mutant used was recombinant human, catalytic domain (amino acids 970-2527) containing a G2019S mutation, GST-tagged, expressed in insect cells (Invitrogen Cat#PV4881). The wild type used was recombinant human, catalytic domain (amino acids 970-2527) GST—tagged, expressed in insect cells (Invitrogen Cat#PV4873). The kinase dead mutant used was recombinant human, catalytic domain (amino acids 970-2527) containing a D1994A mutation, GST-tagged, expressed in insect cells (Invitrogen Cat#PM4041AE). No special measures were taken to activate any of the kinases.
All assays were carried out at room temperature ([…]) and were linear with respect to time and enzyme concentration under the conditions used. Assays were performed for 180 min in a 96 well format. LRRK2 was present at a concentration of approximately 5 nM.
The enzyme was diluted and assayed in 50 mM Tris-HCl pH7.5, 0.1 mM EGTA, 1 mM DTT and 10 mM MgCl2. The concentration of magnesium chloride in the assay was 10 mM. The [γ-33P] ATP (0.4 μCi/well) was used at 134 uM for G2019S mutant and at 57 μM for the wild type kinase in order to be at Km. The peptide substrate in the assay was […] at 100 μM.
The assays were initiated with Mg/ATP and stopped by the addition of 25 μl/well 50% orthophosphoric acid. Reactions were harvested onto Whatman P81 Unifilter Plates (Fisher Scientific. Loughborough, LE115RG, UK. Cat# FDU-105-020U) using a Tomtec harvester (Tomtec Hamden, Conn. 06514. USA). Plates were counted using a Perkin Elmer Top Count NX7. (Perkin Elmer, Shelton CT 06484-4794 USA)
IC50 values of inhibitors were determined after carrying out assays at 10 different concentrations of each compound in duplicate.
Target sequence in this assay (Q5S007 whole entry G2019S, form open, the tested form may be a part): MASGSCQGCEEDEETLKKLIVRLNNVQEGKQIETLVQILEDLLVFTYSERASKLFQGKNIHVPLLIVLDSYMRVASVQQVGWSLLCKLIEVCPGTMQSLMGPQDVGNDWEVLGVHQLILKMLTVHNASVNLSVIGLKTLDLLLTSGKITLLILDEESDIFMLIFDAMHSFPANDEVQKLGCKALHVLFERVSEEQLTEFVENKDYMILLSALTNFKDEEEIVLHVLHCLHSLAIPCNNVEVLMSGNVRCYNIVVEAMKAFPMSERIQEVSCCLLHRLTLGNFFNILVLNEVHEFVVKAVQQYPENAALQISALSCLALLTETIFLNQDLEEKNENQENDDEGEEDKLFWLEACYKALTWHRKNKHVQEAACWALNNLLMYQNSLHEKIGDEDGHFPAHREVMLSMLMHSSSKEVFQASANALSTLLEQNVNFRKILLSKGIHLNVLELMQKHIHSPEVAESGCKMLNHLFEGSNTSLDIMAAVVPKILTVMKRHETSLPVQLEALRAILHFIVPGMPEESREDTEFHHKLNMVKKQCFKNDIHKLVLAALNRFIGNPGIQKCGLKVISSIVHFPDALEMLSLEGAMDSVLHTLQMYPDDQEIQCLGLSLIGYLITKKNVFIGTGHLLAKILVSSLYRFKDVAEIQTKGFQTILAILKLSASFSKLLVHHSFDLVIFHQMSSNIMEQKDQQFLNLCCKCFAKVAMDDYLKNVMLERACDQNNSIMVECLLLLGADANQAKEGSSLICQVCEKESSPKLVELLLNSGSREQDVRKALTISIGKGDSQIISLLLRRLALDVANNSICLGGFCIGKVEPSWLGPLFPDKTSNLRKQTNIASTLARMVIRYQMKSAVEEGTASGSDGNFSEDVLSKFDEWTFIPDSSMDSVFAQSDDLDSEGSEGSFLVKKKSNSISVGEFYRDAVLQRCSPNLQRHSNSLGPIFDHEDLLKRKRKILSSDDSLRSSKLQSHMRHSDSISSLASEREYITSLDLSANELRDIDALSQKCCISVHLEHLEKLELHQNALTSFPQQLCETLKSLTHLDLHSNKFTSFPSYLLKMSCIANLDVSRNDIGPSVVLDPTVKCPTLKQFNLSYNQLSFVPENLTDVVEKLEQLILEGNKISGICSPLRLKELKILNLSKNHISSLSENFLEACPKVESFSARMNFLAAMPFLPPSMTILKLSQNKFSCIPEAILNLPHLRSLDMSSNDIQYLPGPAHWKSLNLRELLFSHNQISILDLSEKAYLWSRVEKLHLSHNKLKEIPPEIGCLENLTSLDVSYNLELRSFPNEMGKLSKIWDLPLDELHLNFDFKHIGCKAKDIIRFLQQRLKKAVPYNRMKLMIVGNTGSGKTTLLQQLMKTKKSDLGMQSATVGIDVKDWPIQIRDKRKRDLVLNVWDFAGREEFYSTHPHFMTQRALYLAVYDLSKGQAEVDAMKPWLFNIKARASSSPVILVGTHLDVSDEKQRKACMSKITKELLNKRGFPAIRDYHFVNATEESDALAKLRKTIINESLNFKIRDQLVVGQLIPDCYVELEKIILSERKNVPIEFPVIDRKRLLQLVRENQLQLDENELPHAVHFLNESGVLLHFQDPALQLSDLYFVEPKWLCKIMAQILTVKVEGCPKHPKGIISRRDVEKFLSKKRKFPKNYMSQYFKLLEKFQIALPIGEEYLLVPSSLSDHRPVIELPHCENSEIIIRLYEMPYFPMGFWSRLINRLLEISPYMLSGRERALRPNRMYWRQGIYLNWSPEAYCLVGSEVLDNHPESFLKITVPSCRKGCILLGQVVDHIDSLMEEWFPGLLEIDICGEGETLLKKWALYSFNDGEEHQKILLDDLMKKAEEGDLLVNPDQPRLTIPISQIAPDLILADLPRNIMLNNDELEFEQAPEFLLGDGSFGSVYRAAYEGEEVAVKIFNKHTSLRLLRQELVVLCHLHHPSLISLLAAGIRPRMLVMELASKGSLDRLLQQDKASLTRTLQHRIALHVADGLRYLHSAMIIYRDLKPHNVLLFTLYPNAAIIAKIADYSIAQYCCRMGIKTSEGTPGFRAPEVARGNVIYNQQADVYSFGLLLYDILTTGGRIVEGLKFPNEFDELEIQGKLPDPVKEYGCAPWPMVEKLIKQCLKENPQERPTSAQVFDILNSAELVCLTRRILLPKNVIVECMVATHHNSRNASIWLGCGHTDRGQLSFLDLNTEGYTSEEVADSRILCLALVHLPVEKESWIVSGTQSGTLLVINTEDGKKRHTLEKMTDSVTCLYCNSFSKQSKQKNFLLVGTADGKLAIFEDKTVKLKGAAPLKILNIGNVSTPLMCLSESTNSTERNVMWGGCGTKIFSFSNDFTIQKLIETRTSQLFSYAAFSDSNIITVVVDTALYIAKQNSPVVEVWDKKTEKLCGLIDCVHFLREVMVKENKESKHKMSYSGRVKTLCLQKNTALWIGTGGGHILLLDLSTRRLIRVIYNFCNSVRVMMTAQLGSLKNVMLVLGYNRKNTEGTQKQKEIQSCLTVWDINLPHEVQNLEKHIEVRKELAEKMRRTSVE

LRRK2 [2] = molecular target: T1, LRRK2; assay: LRRK2 KI determination; assay type: biochemical
Target sequence in this assay (Q5S007 970-2527): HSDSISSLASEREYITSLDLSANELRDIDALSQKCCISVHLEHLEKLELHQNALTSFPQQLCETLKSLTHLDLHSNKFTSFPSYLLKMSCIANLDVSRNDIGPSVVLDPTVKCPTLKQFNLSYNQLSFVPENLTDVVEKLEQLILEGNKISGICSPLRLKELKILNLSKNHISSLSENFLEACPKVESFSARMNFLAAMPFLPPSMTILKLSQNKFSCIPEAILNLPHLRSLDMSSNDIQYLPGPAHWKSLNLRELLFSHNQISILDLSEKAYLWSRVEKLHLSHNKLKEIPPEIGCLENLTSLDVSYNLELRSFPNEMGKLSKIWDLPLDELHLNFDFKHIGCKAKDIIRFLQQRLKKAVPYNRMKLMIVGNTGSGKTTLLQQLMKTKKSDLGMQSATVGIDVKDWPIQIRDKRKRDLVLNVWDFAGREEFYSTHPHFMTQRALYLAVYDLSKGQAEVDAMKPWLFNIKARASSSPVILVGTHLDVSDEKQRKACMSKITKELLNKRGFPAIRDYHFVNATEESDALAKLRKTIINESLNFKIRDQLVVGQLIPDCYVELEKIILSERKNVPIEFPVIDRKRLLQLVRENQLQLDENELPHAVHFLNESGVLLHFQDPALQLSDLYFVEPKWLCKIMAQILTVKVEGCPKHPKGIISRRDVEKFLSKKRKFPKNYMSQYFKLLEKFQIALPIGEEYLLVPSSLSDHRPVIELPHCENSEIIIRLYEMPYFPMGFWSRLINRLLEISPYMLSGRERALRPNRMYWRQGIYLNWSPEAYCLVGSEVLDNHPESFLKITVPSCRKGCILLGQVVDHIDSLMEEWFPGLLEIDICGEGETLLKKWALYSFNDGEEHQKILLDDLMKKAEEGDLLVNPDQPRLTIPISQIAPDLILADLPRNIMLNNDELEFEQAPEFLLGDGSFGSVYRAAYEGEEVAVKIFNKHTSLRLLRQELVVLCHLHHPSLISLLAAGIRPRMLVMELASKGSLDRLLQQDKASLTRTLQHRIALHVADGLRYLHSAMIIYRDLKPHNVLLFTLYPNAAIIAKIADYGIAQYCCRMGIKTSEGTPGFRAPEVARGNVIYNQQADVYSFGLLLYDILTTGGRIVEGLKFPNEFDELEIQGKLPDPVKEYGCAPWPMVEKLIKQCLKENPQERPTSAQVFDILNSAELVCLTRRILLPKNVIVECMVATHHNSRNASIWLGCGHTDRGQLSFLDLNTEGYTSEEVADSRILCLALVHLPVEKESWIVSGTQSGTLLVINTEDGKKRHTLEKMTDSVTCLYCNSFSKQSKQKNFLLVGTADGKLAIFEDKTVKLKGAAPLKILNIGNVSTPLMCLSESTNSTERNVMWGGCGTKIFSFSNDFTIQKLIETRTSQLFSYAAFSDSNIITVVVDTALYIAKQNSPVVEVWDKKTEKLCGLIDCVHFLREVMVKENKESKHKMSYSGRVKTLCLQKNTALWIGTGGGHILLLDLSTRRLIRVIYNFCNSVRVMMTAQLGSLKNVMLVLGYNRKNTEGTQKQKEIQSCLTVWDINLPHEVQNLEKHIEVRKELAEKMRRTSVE

With Cc1n[nH]c2cc(Cl)nc(NC3CCCCC3)c12 [Example 1] the IC50 (LRRK2 [1]) was 100 to 1000 nM.
Cc1n[nH]c2cc(Cl)nc(OC3CCCCC3)c12 [Example 2] was tested, and the IC50 (LRRK2 [1]) was 100 to 1000 nM.
With Cc1n[nH]c2cc(N3CCOCC3)nc(OC3CCCCC3)c12 [Example 3] the IC50 (LRRK2 [1]) was 1000 to 10000 nM.
Molecule Cc1n[nH]c2cc(-c3cnn(C)c3)nc(OC3CCCCC3)c12 [Example 4] has an IC50 (LRRK2 [1]) of 1000 to 10000 nM.
For Cc1cc2[nH]nc(C)c2c(NC2CCCCC2)n1 [Example 5], the IC50 (LRRK2 [1]) was 1000 to 10000 nM.
Work on Cc1cc2[nH]nc(C)c2c(OC2CCCCC2)n1 [Example 6] yielded an IC50 (LRRK2 [1]) of 100 to 1000 nM.
For Cc1cc2[nH]nc(C)c2c(-c2ccco2)n1 [Example 7], the IC50 (LRRK2 [1]) was 100 to 1000 nM.
Work on Cc1n[nH]c2cncc(-c3ccco3)c12 [Example 8] yielded an IC50 (LRRK2 [1]) of 100 to 1000 nM.
Cc1n[nH]c2cncc(NC3CCCCC3)c12 [Example 9] was tested, and the IC50 (LRRK2 [1]) was 100 to 1000 nM.
Molecule Cc1n[nH]c2cncc(OC3CCCCC3)c12 [Example 10] has an IC50 (LRRK2 [1]) of 100 to 1000 nM.
CC(C)Cn1cc(-c2n[nH]c3cc(C#N)nc(OC4CCOCC4)c23)cn1 [Example 11, 3-(1-isobutyl-1H-pyrazol-4-yl)-4-(tetrahydro-2H-pyran-4-yloxy)-1H-pyrazolo[4,3-c]pyridine-6-carbonitrile] was tested, and the Ki (LRRK2 [2]) was < 100 nM.
Clc1cc2[nH]nc(-c3ccnc(N4CCOCC4)c3)c2c(OC2CCOCC2)n1 [Example 12, 4-(4-(6-chloro-4-(tetrahydro-2H-pyran-4-yloxy)-1H-pyrazolo[4,3-c]pyridin-3-yl)pyridin-2-yl)morpholine] was tested, and the Ki (LRRK2 [2]) was < 100 nM.
N#Cc1cc2[nH]nc(-c3ccnc(N4CCOCC4)c3)c2c(OC2CCOCC2)n1 [Example 13] showed a Ki (LRRK2 [2]) of 100 to 1000 nM.
For Cc1[nH]nc2cc(C3CC3)nc(OC3CCCCC3)c12 [Example 14, 4-(cyclohexyloxy)-6-cyclopropyl-3-methyl-1H-pyrazolo[4,3-c]pyridine], the Ki (LRRK2 [2]) was 100 to 1000 nM.
In the case of CC(C)n1cc(-c2n[nH]c3cc(C(F)(F)F)nc(OC4CCOCC4)c23)cn1 [Example 15, 3-(1-isopropyl-1H-pyrazol-4-yl)-4-(tetrahydro-2H-pyran-4-yloxy)-6-(trifluoromethyl)-1H-pyrazolo[4,3-c]pyridine], the Ki (LRRK2 [2]) is reported as < 100 nM.
Cc1cc2[nH]nc(-c3cc(C(=O)N(C)C)ccn3)c2c(NC2CCOCC2)n1 [Example 16, N,N-dimethyl-2-(6-methyl-4-(tetrahydro-2H-pyran-4-ylamino)-1H-pyrazolo[4,3-c]pyridin-3-yl)isonicotinamide] gave a Ki (LRRK2 [2]) of 100 to 1000 nM.
For CCOc1cc(-c2n[nH]c3cc(C)nc(NC4CCOCC4)c23)ncn1 [Example 17, 3-(6-ethoxypyrimidin-4-yl)-6-methyl-N-(tetrahydro-2H-pyran-4-yl)-1H-pyrazolo[4,3-c]pyridin-4-amine], the Ki (LRRK2 [2]) was < 100 nM.
Cc1cc2[nH]nc(-c3cc(C(F)(F)F)ccn3)c2c(NC2CCOCC2)n1 [Example 18, 6-methyl-N-(tetrahydro-2H-pyran-4-yl)-3-(4-(trifluoromethyl)pyridin-2-yl)-1H-pyrazolo[4,3-c]pyridin-4-amine] was tested, and the Ki (LRRK2 [2]) was < 100 nM.
In the case of Cc1cc2[nH]nc(-c3cc(C(F)(F)F)ncn3)c2c(NC2CCOCC2)n1 [Example 19, 6-methyl-N-(tetrahydro-2H-pyran-4-yl)-3-(6-(trifluoromethyl)pyrimidin-4-yl)-1H-pyrazolo[4,3-c]pyridin-4-amine], the Ki (LRRK2 [2]) is reported as < 100 nM.
COc1nc(C)cc2[nH]nc(-c3ccnc(N4CCOCC4)c3)c12 [Example 20, 4-(4-(4-methoxy-6-methyl-1H-pyrazolo[4,3-c]pyridin-3-yl)pyridin-2-yl)morpholine] gave a Ki (LRRK2 [2]) of 100 to 1000 nM.
For CNC(=O)c1cccc(-c2[nH]nc3cc(C)nc(OC)c23)c1 [Example 21, 3-(4-Methoxy-6-methyl-1H-pyrazolo[4,3-c]pyridin-3-yl)-N-methylbenzamide], the Ki (LRRK2 [2]) was 100 to 1000 nM.
For Cc1cc2[nH]nc(-c3ccnc(N4CCOCC4)c3)c2c(OC2CCOCC2)n1 [Example 22, 4-(4-(6-Methyl-4-(tetrahydro-2H-pyran-4-yloxy)-1H-pyrazolo[4,3-c]pyridin-3-yl)pyridin-2-yl)morpholine], the Ki (LRRK2 [2]) was < 100 nM.
With CNC(=O)c1cccc(-c2[nH]nc3cc(C)nc(OC4CCOCC4)c23)c1 [Example 23, N-Methyl-3-(6-Methyl-4-(tetrahydro-2H-pyran-4-yloxy)-1H-pyrazolo[4,3-c]pyridin-3-yl)benzamide] the Ki (LRRK2 [2]) was 100 to 1000 nM.
In the case of Cc1cc2[nH]nc(-c3cnn(C4CCOCC4)c3)c2c(OC2CCOCC2)n1 [Example 24, 6-Methyl-3-(1-(tetrahydro-2H-pyran-4-yl)-1H-pyrazol-4-yl)-4-(tetrahydro-2H-pyran-4-yloxy)-1H-pyrazolo[4,3-c]pyridine], the Ki (LRRK2 [2]) is reported as < 100 nM.
With COc1nc(C)cc2[nH]nc(-c3cnn(C4CCOCC4)c3)c12 [Example 25, 4-Methoxy-6-methyl-3-(1-(tetrahydro-2H-pyran-4-yl)-1H-pyrazol-4-yl)-1H-pyrazolo[4,3-c]pyridine] the Ki (LRRK2 [2]) was < 100 nM.
